# Experimental data from patent US20180284095A1, “BIOMARKERS ASSOCIATED WITH LSD1 INHIBITORS AND USES THEREOF” (Oryzon Genomics, S.A., priority 2015, published 2018).
# Experiments:
# S100A8 = experiment: Microarray gene expression in brain, spleen and liver of Hsd:Athymic Nude-Foxn1nu mice (Example 7); format: in vivo, mouse
# Description: (§1) Total RNA was extracted from samples using the RNeasy extraction kit (Qiagen). The quality and concentration of the RNA was analyzed using the Agilent 2100 bioanalyzer and NanoDrop™ ND-1000 (Thermo Scientific). Samples with RNA integrity number (RIN)<6.0 were discarded. Total RNA (0.5 μg) amplification and labelling with Cy3 or Cy5 was carried out using the Eberwein mRNA amplification procedure (Van Gelder et al, Proc Natl Acad Sci USA 1990, 87:1663-1667) employing the MessageAmp™ aRNA amplification kit from Ambion (Applied Biosystems) following the manufacturer's instructions with minor modifications. As hybridization controls, plant mRNAs were transcribed from a plasmid containing the Zea mays Xet (xyloglucan endo-transglycosylase) cDNA and from a plasmid containing the Zea mays Zmmyb42 cDNA, independently prepared Cy3 and Cy5 labelled aRNA from these two RNAs using the Eberwein mRNA amplification procedure (as disclosed in Cerdà et al, Gen Comp Endocrinol 2008, 156:470-481).
# (§2) The Cy3- and Cy5-labelled cRNAs and spikes were combined and hybridized to the microarray described in Example 2.6 for 17 h at 60° C. using Agilent's gaskets G2534-60002, G2534A hybridization chambers and DNA Hybridization Oven G2545A, according to the manufacturer's instructions. More specifically, equal amounts of Cy3 and Cy5 labeled Xet aRNA as well as equal amounts of Cy3 and Cy5 labeled Zmmyb42 aRNA were spiked into each mixture hybridized to the array. Arrays were washed and raw data were obtained using Agilent's DNA Microarray Scanner G2505B and Feature Extraction software (v10.1). The raw fluorescence intensity data were processed using applicant's proprietary software, and consists in the following operations:
# (§3) Data normalization was carried out by an improved version of the nonlinear Q-splines normalization method (Workman et al., Genome Biol 2002, 3(9):research0048.1-0048.16). Normalization results were presented graphically as MA plots, as first described by Dudoit et al (Dudoit et al, Statistica Sinica, 2002, 12:111-139). Each point corresponds to a probe of the DNA array. M values (vertical axis) are the log-differential expression ratios. A values (horizontal axis) are the log-intensities of the spots. M and A are calculated from the Cy5 and Cy3 intensity values as of each spot. The DNA Array data is normalized using an improved version of non-linear Q-Splines normalization described by Workman et al., Genome Biol 2002, 3(9):research0048.1-0048.16. This process is useful to correct the deviation of the M values from the statistical assumption that most of the spots have M=0 in MA plots. The method allows the adjustment of all M values to form a cloud centered at M=0 in all intensity ranges. The data used to calculate the normalization fitting curve is the totality of the raw measurement dataset, excluding the signals for the probes for the spiked-in plant RNA controls and negative controls. In order to be able to normalize properly the data among all the experiments, the probe-set must include an important group of genes that should have no change (M=0) in the experiment. The normalization function is then applied to all the data, including controls.
# (§4) Normalized and log-transformed data were used to calculate log 2 (sample/control) and Fold Change (FC) values. No background subtraction was applied to the signal intensity values during data processing, permitting robust selection of differentially expressed genes with low expression levels at the cost of potential sub-estimation of change when intensity levels are close to the array background level.
# (§5) Powered Compound 3, 4 or 5 was dissolved in a 20% solution of 2-hydroxypropyl-R-cyclodextrin in water at the appropriate concentrations, vortexed and placed in an ultrasonic bath for 5 minutes.
# (§6) Hsd:Athymic Nude-Foxn1nu mice were maintained in air- and temperature-controlled cages with regular supply of water and food. A maximum of 6 mice/cage were raised. […]
# S100A9 = experiment: as above; format: in vivo, mouse
# Description: as §1, §2, §3, §4, §5, §6
# [1] = SPLEEN, S100A8, 10 mg/kg vs VEH
# [2] = SPLEEN, S100A9, 10 mg/kg vs VEH
smiles,measurement,setting,value
"NC(=O)CN[C@H]1C[C@@H]1c1ccc(OCc2ccccc2)cc1 (racemic) [Compound 3, 2-(((trans)-2-(4-(benzyloxy)phenyl)cyclopropyl)amino)acetamide]",Hybridization signal sample_Cy5,"S100A8; BRAIN, S100A8, 5 mg/kg",229.714
same,log2 (sample/control),"S100A8; BRAIN, S100A8, 5 mg/kg vs VEH",−0.116
same,Hybridization signal sample_Cy5,"S100A8; BRAIN, S100A8, 10 mg/kg",185.235
same,log2 (sample/control),"S100A8; BRAIN, S100A8, 10 mg/kg vs VEH",−0.3304
same,Hybridization signal sample_Cy5,"S100A8; BRAIN, S100A8, 20 mg/kg",108.854
same,log2 (sample/control),"S100A8; BRAIN, S100A8, 20 mg/kg vs VEH",−1.218
same,Hybridization signal sample_Cy5,"S100A8; BRAIN, S100A8, 40 mg/kg",89.5415
same,log2 (sample/control),"S100A8; BRAIN, S100A8, 40 mg/kg vs VEH",−1.598
same,Hybridization signal sample_Cy5,"S100A8; LIVER, S100A8, 5 mg/kg",250.202
same,log2 (sample/control),"S100A8; LIVER, S100A8, 5 mg/kg vs VEH",−1.371
same,Hybridization signal sample_Cy5,"S100A8; LIVER, S100A8, 10 mg/kg",280.387
same,log2 (sample/control),"S100A8; LIVER, S100A8, 10 mg/kg vs VEH",−1.1185
same,Hybridization signal sample_Cy5,"S100A8; LIVER, S100A8, 20 mg/kg",266.01
same,log2 (sample/control),"S100A8; LIVER, S100A8, 20 mg/kg vs VEH",−1.318
same,Hybridization signal sample_Cy5,"S100A8; LIVER, S100A8, 40 mg/kg",161.23
same,log2 (sample/control),"S100A8; LIVER, S100A8, 40 mg/kg vs VEH",−2.177
same,Hybridization signal sample_Cy5,"S100A8; SPLEEN, S100A8, 5 mg/kg",4533.52
same,log2 (sample/control),"S100A8; SPLEEN, S100A8, 5 mg/kg vs VEH",−1.181
same,Hybridization signal sample_Cy5,"S100A8; SPLEEN, S100A8, 10 mg/kg",6342.81
same,log2 (sample/control),S100A8; [1],−0.4706
same,Hybridization signal sample_Cy5,"S100A8; SPLEEN, S100A8, 20 mg/kg",7014.94
same,log2 (sample/control),"S100A8; SPLEEN, S100A8, 20 mg/kg vs VEH",−0.5296
same,Hybridization signal sample_Cy5,"S100A8; SPLEEN, S100A8, 40 mg/kg",4802.3
same,log2 (sample/control),"S100A8; SPLEEN, S100A8, 40 mg/kg vs VEH",−1.65
same,Hybridization signal sample_Cy5,"S100A9; BRAIN, S100A9, 5 mg/kg",756.846
same,log2 (sample/control),"S100A9; BRAIN, S100A9, 5 mg/kg vs VEH",0.1106
same,Hybridization signal sample_Cy5,"S100A9; BRAIN, S100A9, 10 mg/kg",465.025
same,log2 (sample/control),"S100A9; BRAIN, S100A9, 10 mg/kg vs VEH",−0.5589
same,Hybridization signal sample_Cy5,"S100A9; BRAIN, S100A9, 20 mg/kg",268.93
same,log2 (sample/control),"S100A9; BRAIN, S100A9, 20 mg/kg vs VEH",−1.388
same,Hybridization signal sample_Cy5,"S100A9; BRAIN, S100A9, 40 mg/kg",208.488
same,log2 (sample/control),"S100A9; BRAIN, S100A9, 40 mg/kg vs VEH",−1.798
same,Hybridization signal sample_Cy5,"S100A9; LIVER, S100A9, 5 mg/kg",820.026
same,log2 (sample/control),"S100A9; LIVER, S100A9, 5 mg/kg vs VEH",−1.469
same,Hybridization signal sample_Cy5,"S100A9; LIVER, S100A9, 10 mg/kg",841.06
same,log2 (sample/control),"S100A9; LIVER, S100A9, 10 mg/kg vs VEH",−1.41
same,Hybridization signal sample_Cy5,"S100A9; LIVER, S100A9, 20 mg/kg",862.896
same,log2 (sample/control),"S100A9; LIVER, S100A9, 20 mg/kg vs VEH",−1.44
same,Hybridization signal sample_Cy5,"S100A9; LIVER, S100A9, 40 mg/kg",412.209
same,log2 (sample/control),"S100A9; LIVER, S100A9, 40 mg/kg vs VEH",−2.571
same,Hybridization signal sample_Cy5,"S100A9; SPLEEN, S100A9, 5 mg/kg",10802.4
same,log2 (sample/control),"S100A9; SPLEEN, S100A9, 5 mg/kg vs VEH",−1.213
same,Hybridization signal sample_Cy5,"S100A9; SPLEEN, S100A9, 10 mg/kg",15182.8
same,log2 (sample/control),S100A9; [2],−0.5812
same,Hybridization signal sample_Cy5,"S100A9; SPLEEN, S100A9, 20 mg/kg",15717.4
same,log2 (sample/control),"S100A9; SPLEEN, S100A9, 20 mg/kg vs VEH",−0.5179
same,Hybridization signal sample_Cy5,"S100A9; SPLEEN, S100A9, 40 mg/kg",13461.8
same,log2 (sample/control),"S100A9; SPLEEN, S100A9, 40 mg/kg vs VEH",−1.719
"CN1CCN(C(=O)CN[C@H]2C[C@@H]2c2ccc(OCc3ccccc3)cc2)CC1 (racemic) [Compound 4, 2-(((trans)-2-(4-(benzyloxy)phenyl)cyclopropyl)amino)-1-(4-methylpiperazin-1-yl)ethan-1-one]",Hybridization signal sample_Cy5,"S100A8; BRAIN, S100A8, 1 mg/kg",106.74
same,log2 (sample/control),"S100A8; BRAIN, S100A8, 1 mg/kg vs VEH",−1.761
same,Hybridization signal sample_Cy5,"S100A8; BRAIN, S100A8, 3 mg/kg",65.756
same,log2 (sample/control),"S100A8; BRAIN, S100A8, 3 mg/kg vs VEH",−2.35
same,Hybridization signal sample_Cy5,"S100A8; BRAIN, S100A8, 10 mg/kg",46.781
same,log2 (sample/control),"S100A8; BRAIN, S100A8, 10 mg/kg vs VEH",−3.042
same,Hybridization signal sample_Cy5,"S100A8; LIVER, S100A8, 1 mg/kg",220.788
same,log2 (sample/control),"S100A8; LIVER, S100A8, 1 mg/kg vs VEH",−0.8718
same,Hybridization signal sample_Cy5,"S100A8; LIVER, S100A8, 3 mg/kg",211.114
same,log2 (sample/control),"S100A8; LIVER, S100A8, 3 mg/kg vs VEH",−1.181
same,Hybridization signal sample_Cy5,"S100A8; LIVER, S100A8, 10 mg/kg",172.461
same,log2 (sample/control),"S100A8; LIVER, S100A8, 10 mg/kg vs VEH",−1.335
same,Hybridization signal sample_Cy5,"S100A8; SPLEEN, S100A8, 1 mg/kg",6016.2
same,log2 (sample/control),"S100A8; SPLEEN, S100A8, 1 mg/kg vs VEH",−1.312
same,Hybridization signal sample_Cy5,"S100A8; SPLEEN, S100A8, 3 mg/kg",1854.43
same,log2 (sample/control),"S100A8; SPLEEN, S100A8, 3 mg/kg vs VEH",−3.148
same,Hybridization signal sample_Cy5,"S100A8; SPLEEN, S100A8, 10 mg/kg",1214.31
same,log2 (sample/control),S100A8; [1],−3.587
same,Hybridization signal sample_Cy5,"S100A9; BRAIN, S100A9, 1 mg/kg",306.245
same,log2 (sample/control),"S100A9; BRAIN, S100A9, 1 mg/kg vs VEH",−2.143
same,Hybridization signal sample_Cy5,"S100A9; BRAIN, S100A9, 3 mg/kg",132.716
same,log2 (sample/control),"S100A9; BRAIN, S100A9, 3 mg/kg vs VEH",−3.286
same,Hybridization signal sample_Cy5,"S100A9; BRAIN, S100A9, 10 mg/kg",78.7372
same,log2 (sample/control),"S100A9; BRAIN, S100A9, 10 mg/kg vs VEH",−4.222
same,Hybridization signal sample_Cy5,"S100A9; LIVER, S100A9, 1 mg/kg",666.426
same,log2 (sample/control),"S100A9; LIVER, S100A9, 1 mg/kg vs VEH",−1.192
same,Hybridization signal sample_Cy5,"S100A9; LIVER, S100A9, 3 mg/kg",490.218
same,log2 (sample/control),"S100A9; LIVER, S100A9, 3 mg/kg vs VEH",−1.632
same,Hybridization signal sample_Cy5,"S100A9; LIVER, S100A9, 10 mg/kg",386.758
same,log2 (sample/control),"S100A9; LIVER, S100A9, 10 mg/kg vs VEH",−1.928
same,Hybridization signal sample_Cy5,"S100A9; SPLEEN, S100A9, 1 mg/kg",13748.6
same,log2 (sample/control),"S100A9; SPLEEN, S100A9, 1 mg/kg vs VEH",−1.579
same,Hybridization signal sample_Cy5,"S100A9; SPLEEN, S100A9, 3 mg/kg",3824.62
same,log2 (sample/control),"S100A9; SPLEEN, S100A9, 3 mg/kg vs VEH",−3.541
same,Hybridization signal sample_Cy5,"S100A9; SPLEEN, S100A9, 10 mg/kg",2502.64
same,log2 (sample/control),S100A9; [2],−4.161
